US20070197432A1, “Peptides for preventing, diagnosing and treating animal and/or human leptospirosis” (priority 2002, published 2007)
No end group written: not given here.

Assays:
[1] = test system: Leptospira interrogans sl serovar canicola; assay: Trial 1: gerbils immunized with PP-KLH, 10^−2.5 canicola challenge; assay type: in vivo, gerbil; settings: Experiment 1, survival
Procedure: An immunization/challenge protocol was carried out in order to evaluate the protection that can be provided by the PP peptide (SEQ ID No. 1) coupled to the KLH protein.
This construct is administered subcutaneously without adjuvant, with PBS as a negative control (batch 2).
Batch 1: 10 gerbils, 2 injections of 30 μg of PP-KLH in 300 μl, subcutaneously.
Batch 2: 10 gerbils, 2 injections of PBS in 300 μl.
The two injections in a volume of 300 μl were administered subcutaneously, two weeks apart. A challenge by intraperitoneal injection of 0.5 ml of a canicola culture with a titer of 90 to 100 TU (turbidimetry) diluted to 10^−2.5 was administered two weeks after the second injection. • Antigenic response: Monitoring by ELISA of the immune response of the gerbils against the PP peptide

[2] = test system: PP peptide; assay: Immunization of rabbit with noncoupled PP peptide, anti-PP IgG ELISA; assay type: in vivo
Procedure: To test the immunogenicity of the PP peptide alone, immunization with the PP peptide in the rabbit model was carried out, with incomplete Freund's adjuvant being added to each injection.
More precisely, two injections of 400 μg of PP peptide with incomplete Freund's adjuvant (v/v) were administered in a total volume of 2 ml.
The two injections were administered subcutaneously, two weeks apart. The rabbit serum was recovered two weeks after the second injection. The anti-PP antibodies were titered on this serum.
The anti-PP antibodies were titered in the rabbit by the ELISA technique described above, with a biotinylated anti-rabbit antiglobulin (BioAtlantic) at 1/3000 and peroxidase-coupled streptavidin as visualizing agent (RPN1231, Amersham pharmacia biotech)
The results of the anti-PP IgG antibody response, expressed as corrected OD (OD at D28, therefore after the second immunization, minus the OD at D0), of the immunization trial with the PP peptide are given in FIG. 3.

[3] = test system: Leptospira interrogans sl serovar canicola; assay: Trial 2: gerbils immunized with PP-KLH or PP, 10^−2 canicola challenge; assay type: in vivo, gerbil; set-up: Mortality rate / Survival rate: unit not given here
Procedure: An immunization/challenge trial was carried out in order to evaluate the protection that can be provided by the PP peptide (SEQ ID No. 1) coupled or not coupled to the KLH protein.
This construct is administered subcutaneously without adjuvant, and PBS is administered by the same route as the negative control (batch 3). • Batch 1: 12 gerbils, 2 injections of 30 μg of PP-KLH in 300 μl. • Batch 2: 12 gerbils, 2 injections of 30 μg of PP in 300 μl. • Batch 3: 15 gerbils, 2 injections of PBS in 300 A1.
The two injections in a volume of 300 μl were administered subcutaneously, two weeks apart. A challenge by intraperitoneal injection of 0.5 ml of a serovar canicola leptospiral culture with a titer of 90 to 100 TU (turbidimetry) diluted to 10^−2 was administered three weeks after the second injection.

Sequence: KAKPVQKLDDDDDGDDTYKEERHNK [PP peptide, 25 amino acid peptide, fragment aa153-aa177 of the PPL protein of Leptospira interrogans]
- p, log-rank test versus control [1]: < 0.07
- serum dilution at which response against the PP peptide can still be detected ([2]; 2 s.c. injections of 400 μg with incomplete Freund's adjuvant, D28): ≥ 102 400
- immunogenicity ([2]; peptide alone): very immunogenic
- Mortality rate ([3]; 10^−2 canicola challenge): 33.3
- Survival rate ([3]; 10^−2 canicola challenge): 66.7
- mortality in the group (dead/number) ([3]; 10^−2 canicola challenge): 4/12
- gerbils at challenge ([3]; 10^−2 canicola challenge, D0): 12
- mortality of gerbils (dead/number) ([3]; 10^−2 canicola challenge, D4): 0/12
- mortality of gerbils (dead/number) ([3]; 10^−2 canicola challenge, D5): 0/12
- mortality of gerbils (dead/number) ([3]; 10^−2 canicola challenge, D6): 0/12
- mortality of gerbils (dead/number) ([3]; 10^−2 canicola challenge, D7): 0/12
- mortality of gerbils (dead/number) ([3]; 10^−2 canicola challenge, D8): 2/12
- mortality of gerbils (dead/number) ([3]; 10^−2 canicola challenge, D9): 2/10
- mortality of gerbils (dead/number) ([3]; 10^−2 canicola challenge, D10): 0/8
- mortality of gerbils (dead/number) ([3]; 10^−2 canicola challenge, D11): 0/8
- mortality of gerbils (dead/number) ([3]; 10^−2 canicola challenge, D12): 0/8
- mortality of gerbils (dead/number) ([3]; 10^−2 canicola challenge, D13): 0/8
- mortality of gerbils (dead/number) ([3]; 10^−2 canicola challenge, D14): 0/8
- mortality of gerbils (dead/number) ([3]; 10^−2 canicola challenge, D15): 0/8
- mortality of gerbils (dead/number) ([3]; 10^−2 canicola challenge, D16): 0/8
- mortality of gerbils (dead/number) ([3]; 10^−2 canicola challenge, D17): 0/8
- mortality of gerbils (dead/number) ([3]; 10^−2 canicola challenge, D28): 0/8
- p, log-rank test versus control ([3]; Experiment 2, survival): < 0.02
- χ^2, log-rank test versus control ([3]; Experiment 2, survival): 5.64
- p, log-rank test versus control ([3]; Experiment 2, survival, listed as PP): <2.10^−2
